Assay results taken from ChEMBL document CHEMBL5126661, “Experimental and Computational Studies on the Biotransformation of Pseudopyronines with Human Cytochrome P450 CYP4F2” (2022).

How the values were obtained:
Format in all cases: functional
[1] = system: Staphylococcus epidermidis; assay: Antibacterial activity against Staphylococcus epidermidis ATCC14990 assessed as inhibition of bacterial growth by broth microdilution method
Streptococcus mutans = assay: Antibacterial activity against Streptococcus mutans ATCC25175 assessed as inhibition of bacterial growth by broth microdilution method
Moraxella catarrhalis = assay: Antibacterial activity against Moraxella catarrhalis ATCC25238 assessed as inhibition of bacterial growth by broth microdilution method
Staphylococcus aureus = assay: Antibacterial activity against Staphylococcus aureus ATCC12600 assessed as inhibition of bacterial growth by broth microdilution method

Measured: MIC

CCCCCCCc1cc(O)c(CCCCCC)c(=O)o1 [PSEUDOPYRONINES B]
2.1 µg/mL: all assays above
